PMC8757871, “Bridging the Antimicrobial Activity of Two Lactoferricin Derivatives in E. coli and Lipid-Only Membranes” (Frontiers in Medical Technology, 2021)
Like-named read-outs stand apart in the source and are kept apart here.

How the values were obtained:
E. coli K12 5K = assay type: cell-based, Escherichia coli; conditions: MIC = IC99.9, 2 h incubation with AMP in PBS at 37°C, then growth in LB about 20 h
Description: Colonies of E. coli K12 5K (courtesy of Günther Koraimann, University of Graz) were grown in LB-agar plates at 37°C. Overnight cultures (ONCs) were prepared by inoculating a single colony in 3 ml LB-medium in sterile polypropylene conical tubes (15 ml), enabling bacterial growth under aerobic conditions for 12−16 h in a shaking incubator at 37°C. Main cultures were prepared by suspending an aliquot of the ONCs in 10 ml LB-medium in sterile polypropylene conical tubes (50 ml) and harvested in the middle of the exponential growth phase. Bacteria were then immediately washed twice and re-suspended in nutrient-free and isotonic phosphate-buffered saline (PBS) solution (phosphate buffer 20 mM, NaCl 130 mM) at pH 7.4. Bacterial concentration was measured via turbidity measurements. The optical density at λ = 600 nm (OD600) was acquired with the spectrophotometer Thermo Spectronic Genesys 20 (Thermo Fisher Scientific, Waltham, MA), where OD600 = 1 corresponds approximately to 8 ×10^8 CFU/ml (where CFU is colony forming units).
The antimicrobial activity of the AMPs on E. coli was tested using a modified susceptibility microdilution assay ([30]) in the bacterial concentration range of 5 × 10^5 to 10^9 CFU/ml. Bacterial suspensions were incubated at a given AMP concentration for 2 h at 37°C (control samples were incubated in buffer only). Then, cell growth was monitored upon addition of double concentrated LB-medium for about 20 h using a Bioscreen C MBR (Oy Growth Curves Ab, Helsinki, Finland).
This allowed us to quantify the number density of surviving bacteria from the onset of the exponential growth via the relation Δtexp = a + blog(ncell), where a and b were obtained from a calibration curve in absence of AMPs (Supplementary Figure 1B). Then, the inhibited bacterial fraction IF=1-ncell([P])/ncell0 was calculated for different values of peptide concentration, [P], and of bacterial number density of the control sample, ncell0 . Following the so-called “equi-activity” analysis ([27], [31]), we further interpolated IF using a Gompertz function, which enabled us to derive inhibitory peptide concentrations ICx, where x is the corresponding inhibited bacterial fraction (Supplementary Figure 1C). By convention, the standard MIC is defined at inhibition levels of 99.9%, i.e., IC99.9 ≡ MIC. Additional control experiments were performed in order to test whether DMSO and acetic acid, used in buffer solutions of both peptides (see above), affect bacterial growth. In particular, the microdilution assays were repeated with LF11-215 dissolved in pure PBS, yielding equivalently delayed onsets of bacterial growth.

[1] = peptide partitioning from tryptophan fluorescence; assay type: binding; conditions: for K (mole fraction partitioning coefficient) / RB ([P]B/[L]) / [P]W (peptide concentration in the water phase): Trp emission band analysis, after 1 h incubation, HBS pH 7.4, 37°C
Description: All hydrated samples were equilibrated for 1 h at 40°C followed by 5 freeze-and-thaw cycles using liquid N2 and intermittent vortex-mixing. Large unilamellar vesicles (LUVs) were obtained by 31 extrusions with a handheld mini extruder (Avanti Polar Lipids, Alabaster, AL) using a 100 nm pore diameter polycarbonate filter. Vesicle size and polydispersity were determined via DLS using a Zetasizer NANO ZSP (Malvern Panalytical, Malvern, UK). ANTS/DPX-containing vesicles were separated from free ANTS/DPX by exclusion chromatography using a column filled with SephadexTM G-75 (Amersham Biosciences, Little Chalfont, UK) fine gel swollen in iso-osmotic HBS. Phospholipid concentrations for all samples were determined by phosphate analysis.
Fluorescence emission from Trp, present in both peptides, was measured with the Cary Eclipse Fluorescence Spectrophotometer, setting the excitation wavelength to λ= 280 nm, which corresponds to the maximum intensity of the Trp absorption/excitation band. Intensities of exciting and emitting light were adjusted by setting the slit widths of both incident and outgoing beam to 5 or 10 nm, depending on the emission intensity, in order to optimize the signal-to-noise ratio. Emission spectra were background-subtracted to remove contributions originating from the instrument's baseline and scattered light from vesicles. All samples were measured in HBS at 37°C using a quartz cuvette, with a magnetic stirrer to prevent sample sedimentation in the case of aggregation. LUVs ([L] = 100 μM) were mixed with peptides ([P] = 2 and 4 μM), recording fluorescence spectra at various post-mixing time intervals ranging from 0.5 to 60 min. Peptide solutions were measured at concentrations of 2, 3, and 4 μM in order to calibrate their intensity dependence in buffer.
The fluorescence emission band was fitted with the log-normal-like function ([32], [33]) where λmax and I0 are, respectively, wavelength and intensity of the emission peak; Γ is the full-width-at-half-maximum (FWHM) of the band; α is a skewness parameter (fixed at an optimum values 1.36 after testing); and y = α/(α^2 − 1). Spectra from mixtures of LUVs and peptides were analyzed with a linear combination of two independent bands I^W and I^B, referring to AMPs in bulk (W) and partitioned into the lipid bilayer (B). λ^W and Γ^W were fixed to the reference values obtained by analyzing spectra from pure AMPs. Instead, I0W , I0B , λ^B, and Γ^B were adjustable parameters. The so obtained set of I0W values was converted to the concentration of dissociated peptides [P]W and further analyzed for peptide partitioning as detailed in section 2.3.1.
Following a previously reported thermodynamic formalism for the partitioning of peptides into lipid bilayers ([37]), based on the free energy of transfer of molecules from water into octanol ([38]), we define the mole fraction partitioning coefficient, K, as […]
(3) K=[P]B/([P]B+[L])/[P]W/([P]W+[W])≃[P]B[W]/[P]W[L], where [P]B is the molar concentration of peptides partitioned into the lipid phase; [P]W is the peptide concentration in the water phase; and [L] and [W] are, respectively, the molar concentrations of lipids and bulk water (55.5 M at 25°C and 55.3 M at 37°C). The approximation for K (Equation 3) is obtained applying [W] ≫ [PW] and [L] ≫ [PB] (similarly, the concentration of ions in water, i.e., buffer solutions, is negligible compared to [W]). By definition, the total concentration of peptides is [P] = [P]W + [P]B, thus leading to […]
(4) [P]=RB[W]/K︸[P]W+RB[L]︸[P]B=RB([W]/K+[L]),

[2] = POPE/POPG LUVs [L] = 100 μM, [P] = 2 μM
[3] = POPE/POPG LUVs [L] = 100 μM, [P] = 4 μM
[4] = POPE/POPG/TOCL LUVs [L] = 100 μM, [P] = 2 μM
[5] = POPE/POPG/TOCL LUVs [L] = 100 μM, [P] = 4 μM
[6] = POPG LUVs [L] = 100 μM, [P] = 2 μM
[7] = POPG LUVs [L] = 100 μM, [P] = 4 μM

Substance	MIC (E. coli K12 5K; ncell = 10^6 CFU/ml) [µM]	MIC (E. coli K12 5K; ncell = 10^9 CFU/ml) [µM]	K (mole fraction partitioning coefficient) [1, 2]	RB ([P]B/[L]) [1, 2]	[P]W (peptide concentration in the water phase) [1, 2] [µM]	K (mole fraction partitioning coefficient) [1, 3]	RB ([P]B/[L]) [1, 3]	[P]W (peptide concentration in the water phase) [1, 3] [µM]	K (mole fraction partitioning coefficient) [1, 4]	RB ([P]B/[L]) [1, 4]	[P]W (peptide concentration in the water phase) [1, 4] [µM]	K (mole fraction partitioning coefficient) [1, 5]	RB ([P]B/[L]) [1, 5]	[P]W (peptide concentration in the water phase) [1, 5] [µM]	K (mole fraction partitioning coefficient) [1, 6]	RB ([P]B/[L]) [1, 6]	[P]W (peptide concentration in the water phase) [1, 6] [µM]	K (mole fraction partitioning coefficient) [1, 7]	RB ([P]B/[L]) [1, 7]	[P]W (peptide concentration in the water phase) [1, 7] [µM]	further results
H-FWRIRIRR-NH2 [LF11-215, H-FWRIRIRR-NH2]	13.7 ± 0.4	158 ± 2	70 ± 4 ×10^4	11.2 ± 0.3 ×10^−3	0.88 ± 0.03	43 ± 3 ×10^4	17.5 ± 0.7 ×10^−3	2.25 ± 0.07	82 ± 4 ×10^4	11.9 ± 0.2 ×10^−3	0.81 ± 0.02	139 ± 6 ×10^4	28.6 ± 0.3 ×10^−3	1.14 ± 0.03	161 ± 6 ×10^4	14.9 ± 0.3 ×10^−3	0.513 ± 0.015	217 ± 8 ×10^4	31.9 ± 0.4 ×10^−3	0.81 ± 0.04	membrane partitioning, times higher than for LF11-324 ([1]; POPE/POPG/TOCL lipid mixtures): ~ 1.3 times
H-PFFWRIRIRR-NH2 [LF11-324, H-PFFWRIRIRR-NH2]	11.1 ± 0.6	57 ± 2	67 ± 4 ×10^4	11.0 ± 0.3 ×10^−3	0.90 ± 0.02	47 ± 3 ×10^4	18.4 ± 0.6 ×10^−3	2.16 ± 0.06	63 ± 4 ×10^4	10.6 ± 0.3 ×10^−3	0.95 ± 0.03	111 ± 5 ×10^4	26.7 ± 0.4 ×10^−3	1.33 ± 0.04	61 ± 4 ×10^4	10.5 ± 0.3 ×10^−3	0.95 ± 0.03	20 ± 20 ×10^4	10.7 ± 0.9 ×10^−3	2.93 ± 0.09	
